Tests used:
[1] = biological target: Free fatty acid receptor 1 (Homo sapiens, UniProt O14842); assay: Antagonist activity at human GPR40 expressed HEK293 cells assessed as effect on intracellular calcium concentration by FLIPR assay; assay type: functional, cell-based
Liver microsomes [2] = assay: Metabolic stability in rat liver microsomes assessed as clearance; assay type: ADME, Microsome
Rattus norvegicus [3] = assay: Clearance in iv dosed Sprague-Dawley rat; assay type: ADME, organism-based; conditions: in vivo
Rattus norvegicus [4] = assay: Clearance in iv dosed bile duct cannulated rat; assay type: ADME, organism-based; conditions: in vivo
[5] = Drug level in bile of iv dosed bile duct cannulated rat; assay type: ADME, organism-based; conditions: read-out: Drug uptake
Liver microsomes [6] = assay: (§1) Metabolic stability in human liver microsomes assessed as clearance; assay type: ADME, Microsome; conditions: microsomes
[7] = Metabolic stability in dog liver microsomes assessed as clearance; assay type: ADME, Canis lupus familiaris, Microsome
Canis familiaris = assay: Clearance in iv dosed dog; assay type: ADME, organism-based, Canis lupus familiaris; conditions: in vivo
[8] = as §1; assay type: ADME, Microsome; conditions: liver microsomes
[9] = Permeability from apical to basolateral side of the human Caco-2 membrane; assay type: ADME, cell-based; conditions: read-out: permeability
[10] = Permeability from basolateral to apical side of the human Caco-2 membrane; assay type: ADME, cell-based; conditions: read-out: permeability
[11] = Volume of distribution in iv dosed Sprague-Dawley rat; assay type: ADME, organism-based; conditions: in vivo
[12] = Half life in iv dosed Sprague-Dawley rat; assay type: ADME, organism-based; conditions: in vivo

Sequence of Free fatty acid receptor 1 (O14842 whole entry): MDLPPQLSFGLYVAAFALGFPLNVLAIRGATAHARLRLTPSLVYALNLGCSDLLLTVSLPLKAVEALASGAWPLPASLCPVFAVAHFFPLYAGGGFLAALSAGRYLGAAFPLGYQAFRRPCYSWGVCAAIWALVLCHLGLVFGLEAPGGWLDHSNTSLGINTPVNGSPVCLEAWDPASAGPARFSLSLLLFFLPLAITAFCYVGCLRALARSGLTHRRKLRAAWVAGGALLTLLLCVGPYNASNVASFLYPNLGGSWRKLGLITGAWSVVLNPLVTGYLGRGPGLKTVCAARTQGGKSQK

**Q.** For `CCCN1C(=O)c2ccccc2[C@@H](C(=O)O)[C@@H]1c1cc2ccccc2o1`, which IC50 [1] is on record?
**A.** 119 nM

**Q.** What about the clearance (Liver microsomes [2]) of the same molecule?
**A.** 18 µL/min/mg

**Q.** What about the clearance (Rattus norvegicus [3]) of the same molecule?
**A.** 3 mL/min/kg

**Q.** Which results are given for `CC[C@H](C)CN1C(=O)c2ccccc2[C@@H](C(=O)O)[C@@H]1c1ccc(Cl)c(Cl)c1`?
**A.** IC50 [1]: 13 nM; clearance (Liver microsomes [2]): < 14 µL/min/mg

**Q.** What does the source list for `CCC(CC)CN1C(=O)c2ccccc2[C@@H](C(=O)O)[C@@H]1c1ccc(Cl)c(Cl)c1`?
**A.** IC50 [1]: 10 nM; clearance (Liver microsomes [2]): 27 µL/min/mg

**Q.** Which IC50 [1] does the source give for `CCCN1C(=O)c2ccccc2[C@@H](C(=O)O)[C@@H]1c1ccc(Cl)c(Cl)c1` here?
**A.** 89 nM

**Q.** And the clearance (Liver microsomes [2])?
**A.** < 14 µL/min/mg

**Q.** Which IC50 [1] does the source give for `CCCN1C(=O)c2ccccc2[C@@H](C(=O)O)[C@@H]1c1cccc(Cl)c1` here?
**A.** 228 nM

**Q.** And the clearance (Liver microsomes [2])?
**A.** < 14 µL/min/mg

**Q.** And the clearance (Rattus norvegicus [3])?
**A.** 2.96 mL/min/kg

**Q.** Which clearance (Rattus norvegicus [4]) does the source give for `CCCN1C(=O)c2ccccc2[C@@H](C(=O)O)[C@@H]1c1cnc(O[C@H]2CC[C@@H](C)CC2)nc1` here?
**A.** 136 mL/min/kg

**Q.** What about the dose excreted [5] of the same molecule?
**A.** 69.9%

**Q.** Which IC50 [1] does the source give for `CCCN1C(=O)c2ccccc2[C@@H](C(=O)O)[C@@H]1c1ccc(O[C@H]2CC[C@@H](C)CC2)cc1` here?
**A.** 10 nM

**Q.** And the clearance (Liver microsomes [6])?
**A.** < 12 µL/min/mg

**Q.** And the clearance (Liver microsomes [2])?
**A.** 274 µL/min/mg

**Q.** What about the clearance (Rattus norvegicus [4]) of the same molecule?
**A.** 84.5 mL/min/kg

**Q.** What about the dose excreted [5] of the same molecule?
**A.** 22.9%

**Q.** What does the source list for `CCN1C(=O)c2ccccc2[C@@H](C(=O)O)[C@@H]1c1ccc(Oc2ccccc2)cc1`?
**A.** IC50 [1]: 12 nM; clearance (Liver microsomes [6]): < 9 µL/min/mg; clearance (Liver microsomes [2]): 97 µL/min/mg; clearance (Rattus norvegicus [4]): 111 mL/min/kg; dose excreted [5]: 13.9%

**Q.** Which results are given for `CCCN1C(=O)c2ccccc2[C@@H](C(=O)O)[C@@H]1c1ccc(Oc2cc(C)cc(C)c2)cc1`?
**A.** IC50 [1]: 2 nM; clearance (Liver microsomes [6]): 21 µL/min/mg; clearance (Liver microsomes [2]): 46 µL/min/mg

**Q.** Which IC50 [1] does the source give for `CCCN1C(=O)c2ccccc2[C@@H](C(=O)O)[C@@H]1c1ccc(Oc2ccc(C)c(C)c2)cc1` here?
**A.** 3 nM

**Q.** What about the clearance (Liver microsomes [6]) of the same molecule?
**A.** < 8 µL/min/mg

**Q.** And the clearance (Liver microsomes [2])?
**A.** < 14 µL/min/mg

**Q.** Which clearance (Rattus norvegicus [4]) does the source give for `CCCN1C(=O)c2ccccc2[C@@H](C(=O)O)[C@@H]1c1ccc(Oc2cc(Cl)cc(Cl)c2)cc1` here?
**A.** 32.7 mL/min/kg

**Q.** And the dose excreted [5]?
**A.** 64.6%

**Q.** And the microsomal CLint [7]?
**A.** 2.99 µL/min/mg

**Q.** What about the clearance (Canis familiaris) of the same molecule?
**A.** 7.4 mL/min/kg

**Q.** For `CN1C(=O)c2ccccc2[C@@H](C(=O)O)[C@@H]1c1ccc(Oc2ccccc2)cc1`, which IC50 [1] is on record?
**A.** 156 nM

**Q.** What about the clearance (Liver microsomes [2]) of the same molecule?
**A.** 27 µL/min/mg

**Q.** For `CCC(CC)CN1C(=O)c2ccccc2[C@@H](C(=O)O)[C@@H]1c1nc2ccccc2s1`, which IC50 [1] is on record?
**A.** 10 nM

**Q.** What about the clearance (Liver microsomes [2]) of the same molecule?
**A.** < 18 µL/min/mg

**Q.** With `CCCN1C(=O)c2ccccc2[C@@H](C(=O)O)[C@@H]1c1ccc(OC)cc1` as the molecule, how does the IC50 [1] read?
**A.** 2100 nM

**Q.** What about the clearance (Liver microsomes [6]) of the same molecule?
**A.** < 8 µL/min/mg

**Q.** What about the clearance (Liver microsomes [2]) of the same molecule?
**A.** < 14 µL/min/mg

**Q.** For `CC[C@H](C)CN1C(=O)c2ccccc2[C@@H](C(=O)O)[C@@H]1c1cc2ccccc2o1`, which IC50 [1] is on record?
**A.** 20 nM

**Q.** What about the microsomal CLint [8] of the same molecule?
**A.** < 8 µL/min/mg

**Q.** And the clearance (Liver microsomes [2])?
**A.** < 14.1 µL/min/mg

**Q.** And the clearance (Rattus norvegicus [3])?
**A.** 4.3 mL/min/kg

**Q.** What about the Papp A→B [9] of the same molecule?
**A.** 12 ×10⁻⁶ cm/s

**Q.** And the Papp B→A [10]?
**A.** 18.7 ×10⁻⁶ cm/s

**Q.** What about the Vd [11] of the same molecule?
**A.** 1.1 L/kg

**Q.** And the half-life [12]?
**A.** 5.4 h

**Q.** Which IC50 [1] does the source give for `CCCN1C(=O)c2ccccc2[C@@H](C(=O)O)[C@@H]1c1ccc(OCc2ccccc2)cc1` here?
**A.** 96 nM

**Q.** And the clearance (Liver microsomes [6])?
**A.** < 8 µL/min/mg

**Q.** What about the clearance (Liver microsomes [2]) of the same molecule?
**A.** < 16 µL/min/mg

**Q.** What about the clearance (Rattus norvegicus [3]) of the same molecule?
**A.** 82.8 mL/min/kg

**Q.** Which results are given for `CCCN1C(=O)c2ccccc2[C@@H](C(=O)O)[C@@H]1c1ccc(Oc2ccc(C(F)(F)F)cn2)cc1`?
**A.** IC50 [1]: 29 nM; clearance (Liver microsomes [6]): < 8 µL/min/mg; clearance (Liver microsomes [2]): < 14 µL/min/mg

**Q.** What does the source list for `O=C(O)[C@@H]1c2ccccc2C(=O)N(CC2CC2)[C@H]1c1ccc(Oc2ccccc2)cc1`?
**A.** IC50 [1]: 4 nM; clearance (Liver microsomes [2]): 120 µL/min/mg
